From ChEMBL document CHEMBL1147799, “An integrated in silico 3D model-driven discovery of a novel, potent, and selective amidosulfonamide 5-HT1A agonist (PRX-00023) for the treatment of anxiety and depression” (J Med Chem, 2006)
pEC50, pIC50, pKi: −log10 of the molar value. Calls of active or inactive are those of the source. The calls are words filed in the database; no cut-off is given here.

Experiments:
[1] = molecular target: 5-hydroxytryptamine receptor 2B (Homo sapiens, UniProt P41595); test: Binding affinity to 5HT2B receptor by radioligand binding assay
[2] = molecular target: Voltage-gated inwardly rectifying potassium channel KCNH2 (Homo sapiens, UniProt Q12809); test: Inhibition of hERG potassium channel in HEK293 cells by patch clamp assay
[3] = molecular target: 5-hydroxytryptamine receptor 2C (Homo sapiens, UniProt P28335); test: Binding affinity to human 5HT2C receptor by radioligand binding assay
[4] = molecular target: Cytochrome P450 2C19 (Homo sapiens, UniProt P33261); test: Inhibition of human recombinant cytochrome P450 2C19; assay type: ADME; conditions: recombinant enzyme
[5] = molecular target: Cytochrome P450 2D6 (Homo sapiens, UniProt P10635); test: Inhibition of human recombinant cytochrome P450 2D6; assay type: ADME; conditions: recombinant enzyme
[6] = molecular target: Adrenergic receptor beta (Homo sapiens, UniProt P08588+P07550+P13945); test: Binding affinity to beta adrenergic receptor by radioligand binding assay; assay type: protein assay
[7] = molecular target: Translocator protein (Homo sapiens, UniProt P30536); test: Binding affinity to benzodiazepine receptor by radioligand binding assay
[8] = Binding affinity to bradykinin receptor by radioligand binding assay
[9] = molecular target: Endothelin receptor, ET-A/ET-B (Homo sapiens, UniProt P24530+P25101); test: Binding affinity to endothelin receptor by radioligand binding assay; assay type: protein assay
[10] = Binding affinity to chemokine receptor by radioligand binding assay
[11] = Binding affinity to neurotensin receptor by radioligand binding assay
[12] = molecular target: Nociceptin receptor (Homo sapiens, UniProt P41146); test: Binding affinity to orphanin receptor by radioligand binding assay
[13] = Binding affinity to sodium channel by radioligand binding assay
[14] = molecular target: Sodium-dependent noradrenaline transporter (Homo sapiens, UniProt P23975); test: Binding affinity to norepinephrine transporter by radioligand binding assay
[15] = molecular target: Sodium-dependent dopamine transporter (Homo sapiens, UniProt Q01959); test: Binding affinity to dopamine transporter by radioligand binding assay
[16] = tested on: Mus musculus; test: Decrease in basal rectal temperature in stress-induced hyperthermic 129S6/SvEvTac mouse at 20 mg/kg, po; assay type: functional, organism-based; set-up: dose 20 mg/kg
[17] = Binding affinity to melanocortin receptor by radioligand binding assay
[18] = molecular target: Muscarinic acetylcholine receptor; test: Binding affinity to muscarinic receptor by radioligand binding assay; assay type: protein assay
[19] = molecular target: D(2) dopamine receptor (Homo sapiens, UniProt P14416); test: Binding affinity to D2 receptor by radioligand binding assay
[20] = molecular target: T1, 5-hydroxytryptamine receptor 1A (Homo sapiens, UniProt P08908); test: Activity against 5HT1A receptor by Gi-[35S]GTP-gamma-S binding assay; assay type: functional
T1 sequence (P08908 whole entry): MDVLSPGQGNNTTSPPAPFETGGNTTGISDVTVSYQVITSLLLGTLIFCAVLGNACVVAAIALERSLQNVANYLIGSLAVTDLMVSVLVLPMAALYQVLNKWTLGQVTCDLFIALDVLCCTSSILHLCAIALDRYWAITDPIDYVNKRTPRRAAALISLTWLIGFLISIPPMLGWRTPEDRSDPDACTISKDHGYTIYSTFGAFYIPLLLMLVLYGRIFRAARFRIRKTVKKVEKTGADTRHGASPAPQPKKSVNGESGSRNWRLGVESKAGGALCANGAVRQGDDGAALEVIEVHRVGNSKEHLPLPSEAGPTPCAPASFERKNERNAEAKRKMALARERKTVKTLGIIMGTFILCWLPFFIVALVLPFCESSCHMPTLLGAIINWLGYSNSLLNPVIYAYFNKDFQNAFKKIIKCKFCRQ

[21] = Oral bioavailability in Sprague-Dawley rat at 3 mg/kg, po and 1 mg/kg, iv; assay type: ADME, organism-based; conditions: in vivo
[22] = Toxicity in po dosed Sprague-Dawley rat; assay type: organism-based; conditions: in vivo
[23] = Toxicity in po dosed Beagle dog; assay type: organism-based, Canis lupus familiaris; conditions: in vivo
[24] = molecular target: 5-hydroxytryptamine receptor 7 (Homo sapiens, UniProt P34969)
Description: Binding affinity to 5HT7 receptor by radioligand binding assay

[25] = molecular target: 5-hydroxytryptamine receptor 2A (Homo sapiens, UniProt P28223)
Sequence of 5-hydroxytryptamine receptor 2A (P28223 whole entry): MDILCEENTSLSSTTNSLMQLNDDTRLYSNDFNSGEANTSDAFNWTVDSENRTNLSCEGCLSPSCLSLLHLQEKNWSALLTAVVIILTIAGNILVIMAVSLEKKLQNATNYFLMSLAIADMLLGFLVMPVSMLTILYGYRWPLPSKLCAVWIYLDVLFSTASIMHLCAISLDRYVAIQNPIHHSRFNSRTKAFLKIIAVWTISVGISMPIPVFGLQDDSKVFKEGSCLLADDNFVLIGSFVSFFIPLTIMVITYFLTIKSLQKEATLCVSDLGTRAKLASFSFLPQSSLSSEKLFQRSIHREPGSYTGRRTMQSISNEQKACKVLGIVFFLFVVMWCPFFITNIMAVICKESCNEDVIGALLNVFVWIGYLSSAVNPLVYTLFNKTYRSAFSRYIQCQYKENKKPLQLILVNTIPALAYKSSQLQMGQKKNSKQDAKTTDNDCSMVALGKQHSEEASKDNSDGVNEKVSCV
Description: Binding affinity to 5HT2A receptor by radioligand binding assay

Sequence of Sodium-dependent noradrenaline transporter (P23975 whole entry): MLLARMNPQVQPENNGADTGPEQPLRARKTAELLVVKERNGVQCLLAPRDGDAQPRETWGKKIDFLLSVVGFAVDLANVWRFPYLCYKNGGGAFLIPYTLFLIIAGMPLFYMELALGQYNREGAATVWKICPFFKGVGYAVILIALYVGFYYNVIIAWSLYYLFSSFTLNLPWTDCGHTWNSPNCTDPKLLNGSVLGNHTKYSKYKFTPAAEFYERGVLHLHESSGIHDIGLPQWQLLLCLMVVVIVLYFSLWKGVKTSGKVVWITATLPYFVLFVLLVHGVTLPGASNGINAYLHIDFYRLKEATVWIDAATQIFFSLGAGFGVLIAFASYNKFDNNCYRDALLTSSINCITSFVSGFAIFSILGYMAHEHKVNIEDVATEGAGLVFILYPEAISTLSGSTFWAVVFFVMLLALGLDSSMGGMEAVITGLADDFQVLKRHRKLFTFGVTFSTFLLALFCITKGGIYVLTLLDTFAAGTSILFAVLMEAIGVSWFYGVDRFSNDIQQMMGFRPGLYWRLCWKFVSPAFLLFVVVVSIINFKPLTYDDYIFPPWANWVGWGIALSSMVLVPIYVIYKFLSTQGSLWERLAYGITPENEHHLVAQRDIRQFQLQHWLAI
Sequence of Translocator protein (P30536 whole entry): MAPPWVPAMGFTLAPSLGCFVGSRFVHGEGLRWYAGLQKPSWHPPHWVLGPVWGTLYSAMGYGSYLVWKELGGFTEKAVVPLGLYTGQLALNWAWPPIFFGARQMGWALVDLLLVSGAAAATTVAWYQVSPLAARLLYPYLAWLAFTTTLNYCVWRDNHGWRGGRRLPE
Sequence of Voltage-gated inwardly rectifying potassium channel KCNH2 (Q12809 whole entry): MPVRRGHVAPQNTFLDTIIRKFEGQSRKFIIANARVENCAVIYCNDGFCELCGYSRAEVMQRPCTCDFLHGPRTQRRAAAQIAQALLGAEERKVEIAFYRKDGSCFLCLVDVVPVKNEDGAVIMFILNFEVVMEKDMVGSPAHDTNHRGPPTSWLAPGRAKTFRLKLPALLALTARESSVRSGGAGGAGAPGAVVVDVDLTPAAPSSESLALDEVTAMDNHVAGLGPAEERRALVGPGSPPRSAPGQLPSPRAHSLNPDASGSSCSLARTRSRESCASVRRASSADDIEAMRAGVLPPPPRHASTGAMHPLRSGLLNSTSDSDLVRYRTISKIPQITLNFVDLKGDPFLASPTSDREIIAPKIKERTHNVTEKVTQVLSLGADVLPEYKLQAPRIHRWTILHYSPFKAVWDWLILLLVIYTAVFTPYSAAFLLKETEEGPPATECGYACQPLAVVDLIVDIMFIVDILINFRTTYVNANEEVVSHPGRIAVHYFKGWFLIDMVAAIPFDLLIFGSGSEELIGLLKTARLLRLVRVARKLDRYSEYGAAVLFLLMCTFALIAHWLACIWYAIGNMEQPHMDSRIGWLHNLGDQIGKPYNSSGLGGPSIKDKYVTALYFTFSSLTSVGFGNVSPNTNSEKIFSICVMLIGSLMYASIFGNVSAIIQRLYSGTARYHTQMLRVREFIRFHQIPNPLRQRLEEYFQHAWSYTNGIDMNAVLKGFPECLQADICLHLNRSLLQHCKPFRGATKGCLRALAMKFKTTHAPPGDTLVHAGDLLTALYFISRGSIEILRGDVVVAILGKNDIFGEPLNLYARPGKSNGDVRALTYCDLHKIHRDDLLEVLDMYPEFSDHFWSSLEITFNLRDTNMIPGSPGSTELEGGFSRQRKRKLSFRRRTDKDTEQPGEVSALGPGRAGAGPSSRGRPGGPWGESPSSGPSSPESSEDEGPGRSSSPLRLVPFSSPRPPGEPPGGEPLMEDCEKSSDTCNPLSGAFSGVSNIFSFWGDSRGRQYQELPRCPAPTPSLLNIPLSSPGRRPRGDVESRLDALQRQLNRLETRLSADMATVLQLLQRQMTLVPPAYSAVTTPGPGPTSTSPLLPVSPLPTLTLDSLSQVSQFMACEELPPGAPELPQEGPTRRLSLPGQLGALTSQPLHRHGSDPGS
Sequence of D(2) dopamine receptor (P14416 whole entry): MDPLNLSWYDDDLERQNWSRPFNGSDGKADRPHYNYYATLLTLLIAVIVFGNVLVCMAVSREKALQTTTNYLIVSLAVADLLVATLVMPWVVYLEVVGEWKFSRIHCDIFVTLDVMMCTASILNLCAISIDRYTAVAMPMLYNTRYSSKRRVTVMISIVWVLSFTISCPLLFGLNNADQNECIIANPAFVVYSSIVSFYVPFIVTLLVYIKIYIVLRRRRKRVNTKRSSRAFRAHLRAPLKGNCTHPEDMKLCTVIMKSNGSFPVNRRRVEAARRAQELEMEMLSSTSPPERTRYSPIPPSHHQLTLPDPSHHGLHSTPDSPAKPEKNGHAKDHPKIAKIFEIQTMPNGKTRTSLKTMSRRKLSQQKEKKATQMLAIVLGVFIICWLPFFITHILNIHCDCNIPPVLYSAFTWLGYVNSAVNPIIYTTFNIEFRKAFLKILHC
Sequence of Cytochrome P450 2C19 (P33261 whole entry): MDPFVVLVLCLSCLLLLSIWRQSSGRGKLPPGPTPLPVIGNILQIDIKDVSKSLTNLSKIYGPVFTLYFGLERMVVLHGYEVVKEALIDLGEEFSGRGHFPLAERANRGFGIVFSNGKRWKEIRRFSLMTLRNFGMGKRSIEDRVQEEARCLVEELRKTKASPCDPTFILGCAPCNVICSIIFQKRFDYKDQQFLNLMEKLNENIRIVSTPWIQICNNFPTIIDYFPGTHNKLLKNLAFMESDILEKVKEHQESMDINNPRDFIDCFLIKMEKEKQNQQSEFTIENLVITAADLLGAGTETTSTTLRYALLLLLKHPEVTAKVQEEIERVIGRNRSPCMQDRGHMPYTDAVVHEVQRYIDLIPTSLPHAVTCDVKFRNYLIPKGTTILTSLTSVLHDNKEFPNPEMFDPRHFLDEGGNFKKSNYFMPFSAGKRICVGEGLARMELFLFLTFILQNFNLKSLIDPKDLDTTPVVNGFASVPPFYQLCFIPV
Sequence of Nociceptin receptor (P41146 whole entry): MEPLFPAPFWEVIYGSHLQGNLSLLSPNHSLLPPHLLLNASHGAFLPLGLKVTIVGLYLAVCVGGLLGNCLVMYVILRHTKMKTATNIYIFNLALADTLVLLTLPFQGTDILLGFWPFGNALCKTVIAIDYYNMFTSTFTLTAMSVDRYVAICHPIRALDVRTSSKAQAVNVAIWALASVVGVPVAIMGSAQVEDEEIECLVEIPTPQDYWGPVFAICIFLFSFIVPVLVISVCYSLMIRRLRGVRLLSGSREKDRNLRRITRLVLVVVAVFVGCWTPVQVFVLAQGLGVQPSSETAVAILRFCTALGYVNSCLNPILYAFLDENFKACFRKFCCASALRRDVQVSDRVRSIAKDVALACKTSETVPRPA
Sequence of 5-hydroxytryptamine receptor 2B (P41595 whole entry): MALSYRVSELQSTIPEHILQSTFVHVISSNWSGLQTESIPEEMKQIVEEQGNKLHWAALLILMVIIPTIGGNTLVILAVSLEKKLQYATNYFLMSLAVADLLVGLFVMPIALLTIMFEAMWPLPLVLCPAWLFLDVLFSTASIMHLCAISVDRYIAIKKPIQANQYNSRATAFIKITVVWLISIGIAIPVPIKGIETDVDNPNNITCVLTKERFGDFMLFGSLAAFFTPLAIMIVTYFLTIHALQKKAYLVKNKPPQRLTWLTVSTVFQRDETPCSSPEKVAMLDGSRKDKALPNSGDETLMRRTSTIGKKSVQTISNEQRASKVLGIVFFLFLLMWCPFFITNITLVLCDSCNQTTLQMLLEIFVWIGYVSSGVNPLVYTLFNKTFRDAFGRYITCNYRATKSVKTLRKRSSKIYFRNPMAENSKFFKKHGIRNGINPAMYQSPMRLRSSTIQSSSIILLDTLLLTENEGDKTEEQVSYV
Sequence of Sodium-dependent dopamine transporter (Q01959 whole entry): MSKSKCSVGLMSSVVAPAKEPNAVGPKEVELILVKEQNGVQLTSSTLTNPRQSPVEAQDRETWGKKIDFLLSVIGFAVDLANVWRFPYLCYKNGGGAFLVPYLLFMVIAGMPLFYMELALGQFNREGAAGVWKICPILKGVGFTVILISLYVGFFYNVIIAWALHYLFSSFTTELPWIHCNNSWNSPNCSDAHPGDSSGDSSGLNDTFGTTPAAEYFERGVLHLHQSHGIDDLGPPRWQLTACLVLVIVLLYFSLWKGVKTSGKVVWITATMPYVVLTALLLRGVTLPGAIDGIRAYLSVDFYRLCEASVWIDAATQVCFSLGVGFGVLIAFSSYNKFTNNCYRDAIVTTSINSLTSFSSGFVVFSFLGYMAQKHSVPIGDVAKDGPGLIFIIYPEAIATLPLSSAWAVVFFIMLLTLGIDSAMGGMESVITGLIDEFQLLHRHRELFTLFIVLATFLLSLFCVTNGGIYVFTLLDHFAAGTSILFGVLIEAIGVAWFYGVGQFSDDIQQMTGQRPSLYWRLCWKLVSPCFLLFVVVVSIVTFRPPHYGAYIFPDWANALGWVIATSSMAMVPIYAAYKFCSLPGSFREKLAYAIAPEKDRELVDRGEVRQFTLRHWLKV

Q: With CC(=O)Nc1cccc(N2CCN(CCCCNS(=O)(=O)CC3CCCCC3)CC2)c1 [NALUZOTAN] as the molecule, how does the pKi [1] read?
A: < 5.30

Q: And the pIC50 [2]?
A: 5.42

Q: And the pKi [3]?
A: < 5.30

Q: And the Inhibition [4]?
A: Not Active

Q: And the Inhibition [5]?
A: Not Active

Q: What about the Ki [6] of the same molecule?
A: > 2 µM

Q: What about the pKi [7] of the same molecule?
A: < 5.70

Q: And the pKi [8]?
A: < 5.70

Q: What about the Ki [9] of the same molecule?
A: > 2 µM

Q: What about the pKi [10] of the same molecule?
A: < 5.70

Q: What about the pKi [11] of the same molecule?
A: < 5.70

Q: What about the pKi [12] of the same molecule?
A: < 5.70

Q: What about the pKi [13] of the same molecule?
A: < 5.70

Q: What about the pKi [14] of the same molecule?
A: < 5.70

Q: What about the pKi [15] of the same molecule?
A: < 5.70

Q: What about the Activity [16] of the same molecule?
A: Active

Q: And the pKi [17]?
A: < 5.70

Q: And the Ki [18]?
A: > 2 µM

Q: And the pKi [19]?
A: < 5.70

Q: And the pEC50 [20]?
A: 7.70

Q: What about the bioavailability [21] of the same molecule?
A: 11%

Q: And the MTD [22]?
A: 300 mg/kg

Q: And the MTD [23]?
A: 600 mg/kg

Q: And the pKi [24]?
A: 6.15

Q: What about the pKi [25] of the same molecule?
A: < 5.70
